Results: patent US20250352458A1, “IMPROVEMENTS IN OR RELATING TO EXTRACTS” (Givaudan SA, priority 2020, published 2025)
Several values for one entry are separate records, joined by “and”; a condition that tells them apart may be missing. Equal values may be shown once.

Legend:
Test in all cases: MIC evaluation, optical density and percentage of inhibition
[1] = tested on: Propionibacterium acnes (C. acnes) phylotype IA1 ATCC 6919; format: cell-based
Text: (§1) The minimum inhibitory concentration of the following active ingredients has been assessed: • Mangifera indica extract (in propanediol/water 75/25); • Vehicule (propanediol/water 75/25, expressed as Activolo3-75%); • “Pool Mangiferin” which is the pure molecule mangiferin at the same concentration in the Mangifera indica extract in propanediol/water 75/25. • “Pool Mangifera” with is the mix of the 4 molecules (mangiferin, maclurin-C-glucoside, irifluophenone-C-glucoside, gallotanin) at the same concentration in the Mangifera indica extract in propane-diol/water 75/25. […] After two days, the bacterial concentration was adjusted in reinforced clostridial broth to obtain a solution at 1.106 CFU/ml (5.104 CFU/well). […] Concentrations are expressed in % (m/v). […] The diluted bacterial suspension was added to columns 2 to 12. RCB medium was added to column 1 as negative control. Optical density was determined, which correlates to the bacterial growth.

[2] = tested on: C. granulosum (ATCC 25564); format: cell-based, Cutibacterium granulosum
Text: as §1

S. aureus (ATCC 33592) = format: cell-based, Staphylococcus aureus
Text: The minimum inhibitory concentration of the following active ingredients has been assessed: • Mangifera indica extract (in propanediol/water 75/25); • Vehicule (propanediol/water 75/25, expressed as Activolo3-75%); • “Pool Mangiferin” which is the pure molecule mangiferin at the same concentration in the Mangifera indica extract in propanediol/water 75/25. • “Pool Mangifera” with is the mix of the 4 molecules (mangiferin, maclurin-C-glucoside, irifluophenone-C-glucoside, gallotanin) at the same concentration in the Mangifera indica extract in propane-diol/water 75/25. S. aureus: The day before the experiment S. aureus (ATCC 33592) was plated and grown overnight at 37° C. Colonies were resuspended in 5 mL of TSB (Tryptic Soy Broth) to obtain a 0.5 McFarland D O (≈1.10^8 CFU/ml) (launch of culture at D-1). […] Concentrations are expressed in % (m/v). […] The diluted bacterial suspension was added to columns 2 to 12. RCB medium was added to column 1 as negative control. Optical density was determined, which correlates to the bacterial growth.

[3] = tested on: H. influenzae (ATCC 49766); format: cell-based, Haemophilus influenza
Text: The minimum inhibitory concentration of the following active ingredients has been assessed: • Mangifera indica extract (in propanediol/water 75/25); • Vehicule (propanediol/water 75/25, expressed as Activolo3-75%); • “Pool Mangiferin” which is the pure molecule mangiferin at the same concentration in the Mangifera indica extract in propanediol/water 75/25. • “Pool Mangifera” with is the mix of the 4 molecules (mangiferin, maclurin-C-glucoside, irifluophenone-C-glucoside, gallotanin) at the same concentration in the Mangifera indica extract in propane-diol/water 75/25.
H. influenzae (ATCC 49766) was cultured in Mueller Hinton broth as recommended by ATCC with 5% CO2. The Bacterial concentration was adjusted in Mueller Hinton broth to obtain a solution at 1.106 CFU/ml (5.104 CFU/well) (launch of culture at D-2). […] Two day later, the inhibition of H. influenzae was evaluated using Colony counter IUL instruments, flash and go model (reading at D2).
Concentrations are expressed in % (m/v).
The diluted bacterial suspension was added to columns 2 to 12. RCB medium was added to column 1 as negative control.
Optical density was determined, which correlates to the bacterial growth. Thereafter, an inhibition value (%) was determined for each condition using the following formula: […]
The percentage of inhibition must be higher or equal than 90% to reach the MIC.

[4] = 0.39 10^−2 % (m/v), plate col. 12
[5] = 0.78 10^−2 % (m/v), plate col. 11
[6] = 1.56 10^−2 % (m/v), plate col. 10
[7] = 3.1310^−2 % (m/v), plate col. 9
[8] = 6.25 10^−2 % (m/v), plate col. 8
[9] = 12.5 10^−2 % (m/v), plate col. 7
[10] = 25.0 10^−2 % (m/v), plate col. 6

O=c1c2cc(O)c(O)cc2oc2cc(O)c([C@@H]3O[C@H](CO)[C@@H](O)[C@H](O)[C@H]3O)c(O)c12 [pool mangiferin]
Optical density, C. acnes [1, 4]: 0.238 and 0.246
Percentage of inhibition, C. acnes [1, 4]: 2.0% and 0%
Optical density, C. acnes ([1]; 0.5% (m/v), plate col. 5): 0.242 and 0.245
Percentage of inhibition, C. acnes ([1]; 0.5% (m/v), plate col. 5): 0%
Optical density, C. acnes [1, 5]: 0.244 and 0.245
Percentage of inhibition, C. acnes [1, 5]: 0%
Optical density, C. acnes ([1]; 1% (m/v), plate col. 4): 0.241
Percentage of inhibition, C. acnes ([1]; 1% (m/v), plate col. 4): 0%
Optical density, C. acnes [1, 6]: 0.243 and 0.242
Percentage of inhibition, C. acnes [1, 6]: 0%
antibacterial effect against P. acnes (in words) ([1]; 2%): no antibacterial effect
Optical density, C. acnes ([1]; 2% (m/v), plate col. 3): 0.236 and 0.234
Percentage of inhibition, C. acnes ([1]; 2% (m/v), plate col. 3): 3.0% and 4.1%
Optical density, C. acnes [1, 7]: 0.244
Percentage of inhibition, C. acnes [1, 7]: 0%
Optical density, C. acnes [1, 8]: 0.242 and 0.245
Percentage of inhibition, C. acnes [1, 8]: 0%
Optical density, C. acnes [1, 9]: 0.245 and 0.244
Percentage of inhibition, C. acnes [1, 9]: 0%
Optical density, C. acnes [1, 10]: 0.245 and 0.243
Percentage of inhibition, C. acnes [1, 10]: 0%
Optical density, C. granulosum [2, 4]: 0.546 and 0.539
Percentage of inhibition, C. granulosum [2, 4]: 0.5% and 1.9%
Optical density, C. granulosum ([2]; 0.5% (m/v), plate col. 5): 0.449 and 0.457
Percentage of inhibition, C. granulosum ([2]; 0.5% (m/v), plate col. 5): 19.9% and 18.3%
Optical density, C. granulosum [2, 5]: 0.561
Percentage of inhibition, C. granulosum [2, 5]: 0%
Optical density, C. granulosum ([2]; 1% (m/v), plate col. 4): 0.417 and 0.419
Percentage of inhibition, C. granulosum ([2]; 1% (m/v), plate col. 4): 26.3% and 25.9%
Optical density, C. granulosum [2, 6]: 0.573 and 0.570
Percentage of inhibition, C. granulosum [2, 6]: 0%
Optical density, C. granulosum ([2]; 2% (m/v), plate col. 3): 0.391 and 0.398
Percentage of inhibition, C. granulosum ([2]; 2% (m/v), plate col. 3): 31.5% and 30.1%
Optical density, C. granulosum [2, 7]: 0.592 and 0.558
Percentage of inhibition, C. granulosum [2, 7]: 0%
Optical density, C. granulosum [2, 8]: 0.545
Percentage of inhibition, C. granulosum [2, 8]: 0.7%
Optical density, C. granulosum [2, 9]: 0.505 and 0.520
Percentage of inhibition, C. granulosum [2, 9]: 8.7% and 5.7%
Optical density, C. granulosum [2, 10]: 0.479 and 0.478
Percentage of inhibition, C. granulosum [2, 10]: 13.9% and 14.1%
antibacterial effect against C. granulosum (in words) ([2]; at 2%): slight antibacterial effect
Optical density, S. aureus (S. aureus (ATCC 33592); [4]): 0.387 and 0.392
Percentage of inhibition, S. aureus (S. aureus (ATCC 33592); [4]): 3.0% and 1.6%
Optical density, S. aureus (S. aureus (ATCC 33592); 0.5% (m/v), plate col. 5): 0.363 and 0.359
Percentage of inhibition, S. aureus (S. aureus (ATCC 33592); 0.5% (m/v), plate col. 5): 9.8% and 11.0%
Optical density, S. aureus (S. aureus (ATCC 33592); [5]): 0.384 and 0.366
Percentage of inhibition, S. aureus (S. aureus (ATCC 33592); [5]): 3.9% and 9.0%
Optical density, S. aureus (S. aureus (ATCC 33592); 1% (m/v), plate col. 4): 0.346 and 0.348
Percentage of inhibition, S. aureus (S. aureus (ATCC 33592); 1% (m/v), plate col. 4): 14.7% and 14.1%
Optical density, S. aureus (S. aureus (ATCC 33592); [6]): 0.365 and 0.369
Percentage of inhibition, S. aureus (S. aureus (ATCC 33592); [6]): 9.3% and 8.1%
antibacterial effect on S. aureus (in words) (S. aureus (ATCC 33592); 2%): slight antibacterial effect
Optical density, S. aureus (S. aureus (ATCC 33592); 2% (m/v), plate col. 3): 0.320 and 0.327
Percentage of inhibition, S. aureus (S. aureus (ATCC 33592); 2% (m/v), plate col. 3): 22.1% and 20.1%
Optical density, S. aureus (S. aureus (ATCC 33592); [7]): 0.377 and 0.378
Percentage of inhibition, S. aureus (S. aureus (ATCC 33592); [7]): 5.9% and 5.6%
Optical density, S. aureus (S. aureus (ATCC 33592); [8]): 0.370 and 0.364
Percentage of inhibition, S. aureus (S. aureus (ATCC 33592); [8]): 7.9% and 9.6%
Optical density, S. aureus (S. aureus (ATCC 33592); [9]): 0.368 and 0.367
Percentage of inhibition, S. aureus (S. aureus (ATCC 33592); [9]): 8.4% and 8.7%
Optical density, S. aureus (S. aureus (ATCC 33592); [10]): 0.370 and 0.368
Percentage of inhibition, S. aureus (S. aureus (ATCC 33592); [10]): 7.9% and 8.4%
Optical density, H. influenza [3, 4]: 0.190 and 0.197
Percentage of inhibition, H. influenza [3, 4]: 1.9% and 0%
Optical density, H. influenza ([3]; 0.5% (m/v), plate col. 5): 0.193 and 0.191
Percentage of inhibition, H. influenza ([3]; 0.5% (m/v), plate col. 5): −0.3% and 1.2%
Optical density, H. influenza [3, 5]: 0.188 and 0.197
Percentage of inhibition, H. influenza [3, 5]: 3.4% and 0%
Optical density, H. influenza ([3]; 1% (m/v), plate col. 4): 0.190 and 0.183
Percentage of inhibition, H. influenza ([3]; 1% (m/v), plate col. 4): 1.9% and 7.0%
Optical density, H. influenza [3, 6]: 0.185 and 0.196
Percentage of inhibition, H. influenza [3, 6]: 5.5% and 0%
antibacterial effect against H. influenza (in words) ([3]; 2%): no antibacterial effect
Optical density, H. influenza ([3]; 2% (m/v), plate col. 3): 0.184 and 0.181
Percentage of inhibition, H. influenza ([3]; 2% (m/v), plate col. 3): 6.3% and 8.4%
Optical density, H. influenza [3, 7]: 0.180 and 0.193
Percentage of inhibition, H. influenza [3, 7]: 9.1% and 0%
Optical density, H. influenza [3, 8]: 0.185 and 0.197
Percentage of inhibition, H. influenza [3, 8]: 5.5% and 0%
Optical density, H. influenza [3, 9]: 0.187 and 0.195
Percentage of inhibition, H. influenza [3, 9]: 4.1% and 0%
Optical density, H. influenza [3, 10]: 0.189 and 0.196
Percentage of inhibition, H. influenza [3, 10]: 2.6% and 0%
